Data from article PMC4770093, “The role of kinetic context in apparent biased agonism at GPCRs” (Nature Communications, 2016).
“And” between values parts separate entries of the source, which are not always exact repeats. Identical values can stand only once.

How the values were obtained:
[1] = biological target: T1, D2LR (Homo sapiens, UniProt P14416); experiment: xCELLigence cellular impedance (CI) assay; type: cell-based; set-up: expressed in transfected cells; conditions: for Emax: relative to the maximal response of ropinirole
T1 sequence (P14416 whole entry): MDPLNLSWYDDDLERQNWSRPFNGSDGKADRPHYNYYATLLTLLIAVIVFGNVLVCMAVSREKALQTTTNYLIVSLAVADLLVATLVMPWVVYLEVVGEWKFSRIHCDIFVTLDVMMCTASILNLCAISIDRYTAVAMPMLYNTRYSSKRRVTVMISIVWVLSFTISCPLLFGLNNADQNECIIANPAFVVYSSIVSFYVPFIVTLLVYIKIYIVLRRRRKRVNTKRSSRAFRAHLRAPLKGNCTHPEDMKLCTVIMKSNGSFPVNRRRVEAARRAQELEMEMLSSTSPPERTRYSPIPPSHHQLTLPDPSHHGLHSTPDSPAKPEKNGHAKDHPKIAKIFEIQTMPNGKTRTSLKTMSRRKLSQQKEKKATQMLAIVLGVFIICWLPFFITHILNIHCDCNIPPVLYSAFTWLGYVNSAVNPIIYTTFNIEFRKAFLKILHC
Description: Changes in CI on ligand stimulation were measured using the xCELLigence system (Roche Applied Science). The baseline cell index of each well of a 96-well E-plate was measured in the presence of growth medium before cell seeding. Cells were seeded at a density of 20,000 cells per well and grown for 16–20 h followed by 4 h serum starvation. Cells were treated with the ligands and the cell index values were obtained immediately after ligand stimulation every 15 s for a total time of 90 min. The retrieved cell index values were then normalized by dividing the cell index at the time of ligand addition followed by subtraction of the vehicle control at each time point.

[2] = biological target: T1, D2LR; experiment: biochemical
Description: (§1) The cells were harvested in PBS containing 2 mM EDTA and centrifuged at 300 g for 3 min. The resulting pellet was resuspended in ice-cold assay buffer (20 mM HEPES, 100 mM NaCl, 6 mM MgCl2, 1 mM EGTA and 1 mM EDTA pH 7.4) and the centrifugation step was repeated. The intact cell pellet was then resuspended in assay buffer and homogenized using a Polytron homogenizer. After centrifugation (1,000 g, 10 min), the pellet was discarded and the supernatant was recentrifuged at 30,000 g for 1 h at 4 °C using a Sorvall Evolution RC ultracentrifuge (Thermo Scientific). The resulting pellet was resuspended in assay buffer and stored in 250 μl aliquots at −80 °C. Membrane protein concentration was determined using the method of Bradford.
(§2) All radioligand binding experiments were conducted at 37 °C in a 1-ml reaction volume in assay buffer (20 mM HEPES, 100 mM NaCl, 6 mM MgCl2, 1 mM EGTA and 1 mM EDTA pH 7.4) containing 100 μM GppNHp and 0.1% ascorbic acid. In all cases, nonspecific binding was determined in the presence of 10 μM haloperidol. […] Filter-bound radioactivity was measured by scintillation spectrometry after the addition of 3.5 ml of Ultima Gold (PerkinElmer) using a Tri-Carb 2900TR liquid scintillation counter (PerkinElmer).
where Y denotes the percentage-specific binding, Top and Bottom denote the maximal and minimal asymptotes, respectively, IC50 denotes the X-value when the response is midway between Bottom and Top, and nH denotes the Hill slope factor. IC50 values obtained from the inhibition curves were converted to Ki values using the Cheng and Prusoff equation[61].

[3] = biological target: T1, D2LR; experiment: β-Arrestin-2 recruitment (BRET); type: cell-based; set-up: expressed in transfected cells; conditions: 5 minute timepoint
Description: β-Arrestin-2 recruitment. […] To assess β-arrestin-2 recruitment to the D2LR, the cells were transfected with 1 μg Rluc8-tagged D2LR, 4 μg YFP–β-arrestin-2 and 2 μg GRK2. […] The cells were incubated with Coelenterazine (Promega) at a final concentration of 5 μM for 5 min, followed by stimulation with the agonists for an additional 5 min before the BRET readings were captured.

[4] = biological target: T1, D2LR; experiment: GαoB G protein activation (BRET); type: cell-based; set-up: expressed in transfected cells; conditions: for Emax: relative to the maximal response of ropinirole;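 as to all read-outs here: Flp-In-CHO cells stably expressing D2LR, transiently transfected, agonist-stimulated in HBSS at 37 °C, net BRET read after coelenterazine, vehicle control subtracted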
Description: G protein activation. Flp-In-CHO cells stably expressing the D2LR were seeded at a density of 2,000,000 cells per 10-cm dish and were transfected the following day using polyethylenimine as the transfection reagent. […] Twenty-four hours after transfection, the cells were plated into 96-well CulturPlates (PerkinElmer) and grown overnight. The cells were equilibrated in Hank's balanced salt solution at 37 °C before starting the experiment. The cells were stimulated with the agonists for the indicated timeframes when the BRET readings were captured. Coelenterazine (Promega) was added at a final concentration of 5 μM at least 3 min before measurement. […] Net BRET was determined by subtraction of the vehicle control from the agonist-induced response.

[5] = biological target: T1, D2LR; experiment: Inhibition of forskolin-induced cAMP production (BRET CAMYEL biosensor); conditions: for EC50: pEC50 cAMP; for Emax: relative to the maximal response of ropinirole; for Inhibition of cAMP production measured using a CAMYEL BRET biosensor, Net BRET: single experiments n = 1, 2, 3
[6] = biological target: T1, D2LR; experiment: ERK1/2 phosphorylation assay (Alphascreen SureFire); type: cell-based; set-up: expressed in transfected cells; conditions: for alpahscreen assay to detect pERK1/2, counts: agonist 10 μM (cariprazine 1 μM), single experiments n=1 to n=4
Description: ERK1/2 phosphorylation was measured using the Alphascreen SureFire ERK kit (PerkinElmer, Waltham, USA). Cells were seeded into 96-well plates at a density of 50,000 cells per well. After 5–7 h, cells were washed with PBS and incubated in serum-free DMEM overnight before assaying. Dose–response experiments were performed for each ligand at 37 °C in the presence of 0.1% ascorbic acid. […] The plate was shaken for 5 min at room temperature (RT) before transferring 5 μl of the lysates to a white 384-well Proxiplate (PerkinElmer, Waltham, USA). […] Plates were read using a Fusion-TM plate reader (PerkinElmer, Waltham, USA).

[7] = biological target: T1, D2LR; experiment: [3H]spiperone kinetic (dissociation, association, competition association) binding; set-up: expressed in transfected cells; conditions: [3H]spiperone tracer
Description: as §1, §2
The kinetic parameters of unlabelled agonists were determined using the equations described by Motulsky and Mahan[31]. […]

[8] = 5 minute timepoint, Flp-In-CHO-D2LR
[9] = 5 minute timepoint, dopamine as reference agonist

Work on O=c1[nH]c2cccc(N3CCN(Cc4cccc(-c5ccccc5)c4)CC3)c2o1 [Bifeprunox, bifeprunox] yielded an EC50 ([1]; 2 min) of 16.2 nM, an Emax ([1]; 2 min) of 61 ± 4% and an EC50 ([1]; 5 min) of 3.47 nM. The Emax ([1]; 5 min) was 67 ± 3%, the “Log(τ/KA) Cellular impedance” value [1, 8] was 8.30 ± 0.07 and the “ΔLog(τ/KA) Cellular impedance” value [1, 9] was -0.25 ± 0.08. The EC50 ([1]; 10 min) was 1.58 nM, the Emax ([1]; 10 min) was 57 ± 2.5% and the EC50 ([1]; 15 min) was 0.912 nM. For the same molecule, the Emax ([1]; 15 min) was 58 ± 2.8%, the EC50 ([1]; 30 min) was 0.55 nM and the Emax ([1]; 30 min) was 53 ± 3.1%. For the same molecule, the EC50 ([1]; 45 min) was 0.339 nM, the Emax ([1]; 45 min) was 51 ± 2.3% and the EC50 ([1]; 60 min) was 0.263 nM. It also gave an Emax ([1]; 60 min) of 49%, an EC50 ([1]; 75 min) of 0.229 nM and an Emax ([1]; 75 min) of 46%. The EC50 ([1]; 90 min) was 0.2 nM, the Emax ([1]; 90 min) was 44% and the Ki [2] was 0.0437 nM. The “Log(τ/KA) β-arrestin2” value ([3]; ND = no agonist activity detected) was 5.75 ± 0.16, the “ΔLog(τ/KA) β-arrestin2” value ([3]; dopamine as reference agonist) was -0.58 ± 0.21 and the EC50 ([4]; 2 min) was 52.5 nM. The Emax ([4]; 2 min) was 94 ± 3.8%, the EC50 ([4]; 5 min) was 26.9 nM and the Emax ([4]; 5 min) was 80%. For the same molecule, the “Log(τ/KA) GαoB activation” value [4, 8] was 7.50 ± 0.10, the “ΔLog(τ/KA) GαoB activation” value [4, 9] was 0.26 ± 0.13 and the EC50 ([4]; 10 min) was 12.9 nM. For the same molecule, the Emax ([4]; 10 min) was 77%, the EC50 ([4]; 15 min) was 7.59 nM and the Emax ([4]; 15 min) was 79%. The EC50 ([4]; 30 min) was 4.07 nM, the Emax ([4]; 30 min) was 87 ± 2.5% and the EC50 ([4]; 45 min) was 3.02 nM. For the same molecule, the Emax ([4]; 45 min) was 88 ± 2.4%, the EC50 ([4]; 60 min) was 3.24 nM and the EC50 ([4]; 75 min) was 2.19 nM. For the same molecule, the EC50 ([4]; 90 min) was 2.14 nM, the Emax ([4]; 90 min) was 90 ± 3.2% and the “Log(τ/KA) cAMP” value [5, 8] was 7.88 ± 0.05. For the same molecule, the “ΔLog(τ/KA) cAMP” value [5, 9] was -0.18 ± 0.07, the EC50 ([5]; 2 min) was 25.1 nM and the EC50 ([5]; 5 min) was 12.3 nM. For the same molecule, the EC50 ([5]; 10 min) was 7.41 nM, the EC50 ([5]; 15 min) was 5.37 nM and the EC50 ([5]; 30 min) was 2.4 nM. For the same molecule, the EC50 ([5]; 45 min) was 2.75 nM, the EC50 ([5]; 60 min) was 3.09 nM and the EC50 ([5]; 75 min) was 1.58 nM. The EC50 ([5]; 90 min) was 2.04 nM, the Emax ([5]; read-out: Emax cAMP, 2 min) was 89 ± 2% and the Emax ([5]; read-out: Emax cAMP, 5 min) was 92 ± 2%. For the same molecule, the Emax ([5]; read-out: Emax cAMP, 10 min) was 91 ± 2%, the Emax ([5]; read-out: Emax cAMP, 15 min) was 89 ± 2.4% and the Emax ([5]; read-out: Emax cAMP, 30 min) was 89 ± 1.7%. It also gave an Emax ([5]; read-out: Emax cAMP, 45 min) of 88 ± 2%, an Emax ([5]; read-out: Emax cAMP, 60 min) of 81 ± 2% and an Emax ([5]; read-out: Emax cAMP, 75 min) of 90 ± 2.5%. The Emax ([5]; read-out: Emax cAMP, 90 min) was 88 ± 2.5%, the “Inhibition of cAMP production measured using a CAMYEL BRET biosensor, Net BRET” value (from here on “Inhibition of cAMP production measured”) ([5]; time 2.21667 mins) was 0.08914 and 0.1211 and 0.09318 and the “Inhibition of cAMP production measured” value ([5]; time 2.58333 mins) was 0.103 and 0.1317 and 0.09421. The “Inhibition of cAMP production measured” value ([5]; time 2.95 mins) was 0.1113 and 0.1351 and 0.0964, the “Inhibition of cAMP production measured” value ([5]; time 3.31667 mins) was 0.1109 and 0.1416 and 0.1166 and the “Inhibition of cAMP production measured” value ([5]; time 3.68333 mins) was 0.1141 and 0.143 and 0.1124. For the same molecule, the “Inhibition of cAMP production measured” value ([5]; time 4.05 mins) was 0.1231 and 0.1563 and 0.1162, the “Inhibition of cAMP production measured” value ([5]; time 4.41667 mins) was 0.1255 and 0.1611 and 0.116 and the “Inhibition of cAMP production measured” value ([5]; time 4.78333 mins) was 0.1306 and 0.1617 and 0.1229. The “Inhibition of cAMP production measured” value ([5]; time 5.15 mins) was 0.1492 and 0.1604 and 0.1179, the “Inhibition of cAMP production measured” value ([5]; time 5.51667 mins) was 0.135 and 0.1611 and 0.1193 and the “Inhibition of cAMP production measured” value ([5]; time 5.88333 mins) was 0.1401 and 0.1595 and 0.123. The “Inhibition of cAMP production measured” value ([5]; time 6.25 mins) was 0.1298 and 0.1539 and 0.1222, the “Inhibition of cAMP production measured” value ([5]; time 6.61667 mins) was 0.1365 and 0.1594 and 0.1215 and the “Inhibition of cAMP production measured” value ([5]; time 6.98333 mins) was 0.1365 and 0.1586 and 0.1225. For the same molecule, the “Inhibition of cAMP production measured” value ([5]; time 7.35 mins) was 0.1382 and 0.1575 and 0.1195, the “Inhibition of cAMP production measured” value ([5]; time 7.71667 mins) was 0.1358 and 0.1585 and 0.1189 and the “Inhibition of cAMP production measured” value ([5]; time 8.08333 mins) was 0.1415 and 0.1636 and 0.1191. For the same molecule, the “Inhibition of cAMP production measured” value ([5]; time 8.45 mins) was 0.1387 and 0.16 and 0.1143, the “Inhibition of cAMP production measured” value ([5]; time 8.81667 mins) was 0.1483 and 0.1622 and 0.1213 and the “Inhibition of cAMP production measured” value ([5]; time 9.18333 mins) was 0.1415 and 0.1645 and 0.1136. The “Inhibition of cAMP production measured” value ([5]; time 9.55 mins) was 0.1361 and 0.1571 and 0.122, the “Inhibition of cAMP production measured” value ([5]; time 9.91667 mins) was 0.1368 and 0.1537 and 0.1212 and the “Inhibition of cAMP production measured” value ([5]; time 10.2833 mins) was 0.1433 and 0.1558 and 0.1185. The “Inhibition of cAMP production measured” value ([5]; time 10.65 mins) was 0.1418 and 0.1582 and 0.1222, the “Inhibition of cAMP production measured” value ([5]; time 11.0167 mins) was 0.1356 and 0.1444 and 0.1266 and the “Inhibition of cAMP production measured” value ([5]; time 11.3833 mins) was 0.1394 and 0.145 and 0.1251. For the same molecule, the “Inhibition of cAMP production measured” value ([5]; time 11.75 mins) was 0.1471 and 0.1529 and 0.1151, the “Inhibition of cAMP production measured” value ([5]; time 12.1167 mins) was 0.148 and 0.1471 and 0.1222 and the “Inhibition of cAMP production measured” value ([5]; time 12.4833 mins) was 0.1456 and 0.1415 and 0.132. The “Inhibition of cAMP production measured” value ([5]; time 12.85 mins) was 0.1323 and 0.1432 and 0.12, the “Inhibition of cAMP production measured” value ([5]; time 13.2167 mins) was 0.14 and 0.1381 and 0.1276 and the “Inhibition of cAMP production measured” value ([5]; time 13.5833 mins) was 0.1427 and 0.1424 and 0.1286. The “Inhibition of cAMP production measured” value ([5]; time 13.95 mins) was 0.1347 and 0.1377 and 0.1287, the “Inhibition of cAMP production measured” value ([5]; time 14.3167 mins) was 0.1428 and the “Log(τ/KA) pERK1/2” value [6, 8] was 7.32 ± 0.10. For the same molecule, the “ΔLog(τ/KA) pERK1/2” value [6, 9] was -1.24 ± 0.11, the “alpahscreen assay to detect pERK1/2, counts” value ([6]; time 10 mins) was 15.6263 counts and 16.6076 counts and 20.0466 counts and 28.1436 counts and the “alpahscreen assay to detect pERK1/2, counts” value ([6]; time 15 mins) was 10.0482 counts and 8.477 counts and 14.6057 counts and 15.1817 counts. For the same molecule, the koff ([7]; Flp-In-CHO-D2LR membranes, 100 μM GppNHp, 37 °C) was 0.000167 s⁻¹ and the Kd ([7]; read-out: pKd (affinity determined from kinetic parameters) (converted)) was 0.1 nM.
